Experiments:
[1] = test system: Hela; test: Cell proliferation assay (CCK8), Hela; assay type: cell-based; conditions: Homo sapiens, cells incubated with compounds for 24 h
Experimental: (§1) CCK8 is much more convenient and helpful than MTT for analyzing cell proliferation, because it can be reduced to soluble formazan by dehydrogenase in mitochondria and has little toxicity to cells. Cell proliferation was determined using CCK8 dye (Beyotime Inst. Biotech., Nanjing, China) according to the manufacturer's instructions. Briefly, 1–5 × 10^3 cells per well were seeded on a 96-well plate, and grown at 37 °C for 12 h. Subsequently, cells were treated with all synthesized compounds at increasing concentrations in the presence of 10% FBS for 24 h. After addition of 10 μL CCK8 dyeto each well, cells were incubated at 37 °C for 2 h and plates were read on a Victor-V multilabel counter (Perkin-Elmer, Männedorf, Switzerland) using the default […]. Percent inhibition or IC50 values of compounds were calculated by comparison with DMSO-treated control wells.

[2] = test system: HepG2; test: Cell proliferation assay (CCK8), HepG2; assay type: cell-based; conditions: for IC50: Homo sapiens, HepG2, cells incubated with compounds for 24 h, CCK8
Experimental: as §1

[3] = test system: A431; test: Cell proliferation assay (CCK8), A431; assay type: cell-based; conditions: Homo sapiens, A-431, cells incubated with compounds for 24 h
Experimental: as §1

[4] = biological target: T1, EGFR (Homo sapiens, UniProt P00533); test: EGFR kinase autophosphorylation assay (DELFIA/Time Resolved Fluorometry); assay type: biochemical; conditions: enzyme incubated with compounds for 70 min
T1 construct: EGFR cytoplasmic domain (EGFR-CD, amino acids 645–1186); (His)6 (N); made in house; host or cells: Sf-9 insect cells (baculovirus)
Experimental: A sequence that encodes (His)6 was located at the 5' upstream to the EGFR sequences. Sf-9 cells were infected for 3 days for protein expression. Sf-9 cell pellets were solubilized at 0 °C in a buffer at pH 7.4 containing 50 mM HEPES, 10 mM NaCl, 1% Triton, 10 μM ammonium molybdate, 100 μM sodium vanadate, 10 μg/mL aprotinin, 10 μg/mL leupeptin, 10 μg/mL pepstatin, and 16 μg/mL benzamidine HCl for 20 min followed by 20 min centrifugation. Crude extract supernatant was passed through an equilibrated Ni-NTA superflow packed column and washed with 10 mM and then 100 mM imidazole to remove nonspecifically bound material. Histidine tagged proteins were eluted with 250 and 500 mM imidazole and dialyzed against 50 mM NaCl, 20 mM HEPES, 10% glycerol, and 1 μg/mL each of aprotinin, leupeptin, and pepstatin for 2 h. The entire purification procedure was performed at 4 °C or on ice.
EGFR kinase assays was set up to assess the level of autophosphorylation based on DELFIA/Time Resolved Fluorometry. […] In each well, 10 μL compound was incubated with 10 μL (5 ng for EGFR) recombinant enzyme (1:80 dilution in 100 mM HEPES) for 10 min at room temperature. Then, 10 μL of 5× buffer (containing 20 mM HEPES, 2 mM MnCl2, 100 μM Na3VO4, and 1 mM DTT) and 20 μL of 0.1 mM ATP-50 mM MgCl2 were added for 1 h. Positive and negative controls were included in each plate by incubation of enzyme with or without ATP-MgCl2.
At the end of incubation, liquid was aspirated, and plates were washed three times with wash buffer. A 75 μL (400 ng) sample of europium labeled anti-phosphotyrosine antibody was added to each well for another 1 h of incubation. After washing, enhancement solution was added and the signal was detected by Victor (Wallac Inc., Männedorf, Switzerland) with excitation at 340 nm and emission at 615 nm. The percentage of autophosphorylation inhibition by the compounds was calculated using the following equation: 100% − [[…]] (1)
The IC50 was obtained from curves of percentage inhibition with eight concentrations of compound.

[5] = test system: HepG2 cell; test: Apoptosis assay by flow cytometry (AnnexinV-FITC/PI); assay type: cell-based
Experimental: Approximately 10^5 cells/well were plated in a 24 well plate and allowed to adhere. After 24 h, the medium was replaced with fresh culture medium containing compounds D9 at final concentrations of 4, 6, 8 μM. Nontreated wells received an equivalent volume of ethanol (<0.1%). They were trypsinized, washed in PBS and centrifuged at 2,000 rpm for 5 min. The pellet was then resuspended in 500 μL of staining solution (containing 5 μL AnnexinV-FITC and 5 μL PI in Binding Buffer), mixed gently and incubated for 15 min at room temperature (15–25 °C) in dark. The sample were then read in FACScalibur flow cytometer (BD Company, New Jersey, USA) at 488 nm excitation.

[6] = test system: HepG2 cell migration; test: Cell migration assay (Trans well); assay type: cell-based; conditions: 0.06, 0.08, 0.1 μM, 24 h
Experimental: A cell migration assay was conducted as described previously (Qian et al.), with a slight modification. In brief, the cells were serum-starved overnight, and the transwells were coated with […] (ECL) cell attachment matrix (Upstate Biotechnology, Lake Placid, NY, USA) at 20 μg/mL. The top chambers of transwells were loaded with 0.2 mL of cells (4 × 10^5 cells/mL) in serum-free media, and the bottom chambers were loaded with 0.6 mL of MEM media containing 0.5% FBS. The cells were incubated in the transwells at 37 °C in 5% CO2 for 24 h. A microplate reader was used to measure the optical density of the eluted solutions in order to determine their migration values. Mean values were obtained from three individual experiments.

T1 sequence (P00533 669-1210): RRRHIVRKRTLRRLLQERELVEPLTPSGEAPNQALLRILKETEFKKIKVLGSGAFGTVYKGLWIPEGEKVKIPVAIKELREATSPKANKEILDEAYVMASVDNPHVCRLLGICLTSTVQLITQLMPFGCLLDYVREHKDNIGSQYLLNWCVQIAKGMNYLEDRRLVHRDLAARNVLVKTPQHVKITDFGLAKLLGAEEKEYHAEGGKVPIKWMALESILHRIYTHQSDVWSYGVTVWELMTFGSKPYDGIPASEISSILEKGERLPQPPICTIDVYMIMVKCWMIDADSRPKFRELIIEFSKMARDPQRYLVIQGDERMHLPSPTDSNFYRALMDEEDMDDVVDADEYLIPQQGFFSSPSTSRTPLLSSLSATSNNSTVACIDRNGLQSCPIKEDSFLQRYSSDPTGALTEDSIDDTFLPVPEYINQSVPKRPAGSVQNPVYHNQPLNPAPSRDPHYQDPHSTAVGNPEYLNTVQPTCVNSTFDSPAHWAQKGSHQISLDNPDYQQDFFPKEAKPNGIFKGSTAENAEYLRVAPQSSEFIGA

Row | Structure (SMILES) | IC50 [1] | IC50 [2] | IC50 [3] | IC50 [4] | melting point | effect on HepG2 cell survival ratios (CCK8 assay) ([2]; concentrations lower than 0.1 μM) | percentage of cell apoptosis ([5]; HepG2, 4 μM) | percentage of cell apoptosis ([5]; HepG2, 6 μM) | percentage of cell apoptosis ([5]; HepG2, 8 μM) | amount of migrating HepG2 cells vs control [6]
1 | COc1cc(NC(=O)/C=C/c2ccc3c(c2)OCCCCO3)cc(OC)c1OC [Compound D6, (E)-3-(2,3,4,5-tetrahydrobenzo[b][1,4]dioxocin-8-yl)-N-(3,4,5-trimethoxyphenyl)acrylamide] | 25.7 µM | 13.2 µM | 11.7 µM | – | 145 to 146 °C | – | – | – | – | –
2 | COc1ccc(OC)c(NC(=O)/C=C/c2ccc3c(c2)OCCCCO3)c1 [Compound D5, (E)-N-(2,5-dimethoxyphenyl)-3-(2,3,4,5-tetrahydrobenzo[b][1,4]dioxocin-8-yl)acrylamide] | 21.4 µM | 10.5 µM | 9.31 µM | – | 110 to 111 °C | – | – | – | – | –
3 | C#Cc1cccc(Nc2ncnc3cc(OCCOC)c(OCCOC)cc23)c1 [Erlotinib, reference compound] | – | 0.08 µM | 0.04 µM | – | – | – | – | – | – | –
4 | O=C(O)/C=C/c1ccc(O)c(O)c1 [Caffeic acid] | 544 µM | 225 µM | 93.5 µM | – | – | – | – | – | – | –
5 | COc1ccc(NC(=O)/C=C/c2ccc3c(c2)OCCCCO3)cc1OC [Compound D3, (E)-N-(3,4-dimethoxyphenyl)-3-(2,3,4,5-tetrahydrobenzo[b][1,4]dioxocin-8-yl)acrylamide] | 19.6 µM | 10.2 µM | 8.96 µM | – | 171 to 172 °C | – | – | – | – | –
6 | O=C(/C=C/c1ccc2c(c1)OCCCCO2)Nc1ccccc1[N+](=O)[O-] [Compound D2, (E)-N-(2-nitrophenyl)-3-(2,3,4,5-tetrahydrobenzo[b][1,4]dioxocin-8-yl)acrylamide] | 28.2 µM | 9.4 µM | 24.7 µM | – | 119 to 120 °C | – | – | – | – | –
7 | O=C(O)/C=C/c1ccc2c(c1)OCCCCO2 [C, (E)-3-(2,3,4,5-tetrahydrobenzo[b][1,4]dioxocin-8-yl)acrylic acid] | 105 µM | 56 µM | 41 µM | – | – | – | – | – | – | –
8 | Cc1ccc(Cl)cc1NC(=O)/C=C/c1ccc2c(c1)OCCCCO2 [Compound D13, (E)-N-(5-chloro-2-methylphenyl)-3-(2,3,4,5-tetrahydrobenzo[b][1,4]dioxocin-8-yl)acrylamide] | 24.3 µM | 15.2 µM | 14.1 µM | – | 107 to 108 °C | – | – | – | – | –
9 | O=C(/C=C/c1ccc2c(c1)OCCCCO2)Nc1ccc(Br)cc1F [Compound D14, (E)-N-(4-bromo-2-fluorophenyl)-3-(2,3,4,5-tetrahydrobenzo[b][1,4]dioxocin-8-yl)acrylamide] | 30.8 µM | 9.03 µM | 22.6 µM | – | 110 to 111 °C | – | – | – | – | –
10 | COc1cc(NC(=O)/C=C/c2ccc3c(c2)OCCCCO3)cc(OC)c1 [Compound D4, (E)-N-(3,5-dimethoxyphenyl)-3-(2,3,4,5–tetrahydrobenzo[b][1,4]dioxocin-8-yl)acrylamide] | 23.7 µM | 11.1 µM | 10 µM | – | 115 to 116 °C | – | – | – | – | –
11 | O=C(/C=C/c1ccc2c(c1)OCCCCO2)Nc1cccc(F)c1 [Compound D17, (E)-N-(3-fluorophenyl)-3-(2,3,4,5-tetrahydrobenzo[b][1,4]dioxocin-8-yl)acrylamide] | 19.5 µM | 7.9 µM | 21.6 µM | – | 116 to 117 °C | – | – | – | – | –

The next lines start with results.

Row | IC50 [1] | IC50 [2] | IC50 [3] | IC50 [4] | melting point | Structure (SMILES) | effect on HepG2 cell survival ratios (CCK8 assay) ([2]; concentrations lower than 0.1 μM) | percentage of cell apoptosis ([5]; HepG2, 4 μM) | percentage of cell apoptosis ([5]; HepG2, 6 μM) | percentage of cell apoptosis ([5]; HepG2, 8 μM) | amount of migrating HepG2 cells vs control [6]
12 | 5.15 µM | 1.48 µM | 17.8 µM | 2.18 µM | 86 to 87 °C | O=C(/C=C/c1ccc2c(c1)OCCCCO2)NCc1ccccc1F [Compound D15, (E)-N-(2-fluorobenzyl)-3-(2,3,4,5-tetrahydrobenzo[b][1,4]dioxocin-8-yl)acrylamide] | – | – | – | – | –
13 | 7.04 µM | 0.95 µM | 7.42 µM | 0.85 µM | 112 to 113 °C | COc1ccc(NC(=O)/C=C/c2ccc3c(c2)OCCCCO3)cc1 [Compound D8, (E)-N-(4-methoxyphenyl)-3-(2,3,4,5-tetrahydrobenzo[b][1,4]dioxocin-8-yl)acrylamide] | – | – | – | – | –
14 | 13.6 µM | 3.47 µM | 16.6 µM | 7.25 µM | 125 to 126 °C | O=C(/C=C/c1ccc2c(c1)OCCCCO2)Nc1ccc([N+](=O)[O-])cc1 [Compound D1, (E)-N-(4-nitrophenyl)-3-(2,3,4,5-tetrahydrobenzo[b][1,4]dioxocin-8-yl)acrylamide] | – | – | – | – | –
15 | 16.7 µM | 4.94 µM | 18.9 µM | 8.97 µM | 127 to 128 °C | O=C(/C=C/c1ccc2c(c1)OCCCCO2)Nc1ccccc1Cl [Compound D11, (E)-N-(2-chlorophenyl)-3-(2,3,4,5-tetrahydrobenzo[b][1,4]dioxocin-8-yl)acrylamide] | – | – | – | – | –
16 | 9.04 µM | 2.38 µM | 7.96 µM | 3.52 µM | 107 to 108 °C | O=C(/C=C/c1ccc2c(c1)OCCCCO2)Nc1ccc(Br)cc1 [Compound D16, (E)-N-(4-bromophenyl)-3-(2,3,4,5-tetrahydrobenzo[b][1,4]dioxocin-8-yl)acrylamide] | – | – | – | – | –
17 | 8.71 µM | 3.16 µM | 12.6 µM | 6.78 µM | 104 to 105 °C | COc1cccc(NC(=O)/C=C/c2ccc3c(c2)OCCCCO3)c1 [Compound D7, (E)-N-(3-methoxyphenyl)-3-(2,3,4,5-tetrahydrobenzo[b][1,4]dioxocin-8-yl)acrylamide] | – | – | – | – | –
18 | 6.75 µM | 0.79 µM | 7.03 µM | 0.36 µM | 137 to 139 °C | CCOc1ccc(NC(=O)/C=C/c2ccc3c(c2)OCCCCO3)cc1 [Compound D9, (E)-N-(4-ethoxyphenyl)-3-(2,3,4,5-tetrahydrobenzo[b][1,4]dioxocin-8-yl)acrylamide] | no effect | 17.99% | 26.83% | 41.1% | less than control group
19 | 18.5 µM | 6.87 µM | 20 µM | 12.4 µM | 109 to 110 °C | O=C(/C=C/c1ccc2c(c1)OCCCCO2)Nc1cccc(Cl)c1 [Compound D10, (E)-N-(3-chlorophenyl)-3-(2,3,4,5-tetrahydrobenzo[b][1,4]dioxocin-8-yl)acrylamide] | – | – | – | – | –
20 | 10.8 µM | 6.28 µM | 14.2 µM | 12 µM | 112 to 113 °C | Cc1cccc(NC(=O)/C=C/c2ccc3c(c2)OCCCCO3)c1 [Compound D12, (E)-3-(2,3,4,5-tetrahydrobenzo[b][1,4]dioxocin-8-yl)-N-m-tolylacrylamide] | – | – | – | – | –

Source: article PMC6271756, “Synthesis of Caffeic Acid Amides Bearing 2,3,4,5-Tetra-hydrobenzo[b][1,4]dioxocine Moieties and Their Biological Evaluation as Antitumor Agents” (Molecules, 2014)
